Laboratory results published in patent US9901609B2, “Medicinal plant extract” (UNIVERSITY OF ANTWERP, priority 2013, dated 2018).

Experiment: Body weight monitoring during the in vivo experiment
Set-up: species or system dogs
Conditions: entire experiment (180 days)
Protocol: After each surgical procedure each dog received marbofloxacin 2% (1 mg/kg body weight) during 4 days. The body weight of all dogs was monitored during the entire experiment. Data are expressed as mean±SEM. Data were analyzed using one way analysis of variance (ANOVA), followed by the Bonferroni test or Kruskal-Wallis analysis and Dunnett T3. P≦0.05 was considered significant.

C[C@H](CCC(=O)O)[C@H]1CC[C@H]2[C@@H]3[C@@H](O)C[C@@H]4C[C@H](O)CC[C@]4(C)[C@H]3CC[C@]12C [UDCA, ursodeoxycholic acid]
body weight of the dogs over time: gained or lost no body weight over time
